Reference: PubChem BioAssay AID248 (DTP/NCI, 2004)
Inconclusive results and toxic doses are left out. No stated cut-off is given here; in the data, active means T/C of 150% or more; inactive means T/C below 125%.

Tested on: L1210 leukemia ip in BDF1 mice, survival T/C
Test: NCI In Vivo Anticancer Drug Screen. Data for tumor model L1210 Leukemia (intraperitoneal) in B6D2F1 (BDF1) mice
Details: endpoint: mean survival time, higher = longer survival
Summary of the method: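 In this screen, tumor-bearing mice given compound are compared to those given vehicle, and their survival values are reported as a treated-to-control quotient.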

[1] = dose: 100.0 mg/kg/injection, schedule: Q01DX009 (ip), vehicle: Klucel (hydroxypropylcellulose) (HPC)
[2] = dose: 100.0 mg/kg/injection, schedule: Q04DX003 (ip), vehicle: Klucel (hydroxypropylcellulose) (HPC)
[3] = dose: 200.0 mg/kg/injection, schedule: Q01DX009 (ip), vehicle: Klucel (hydroxypropylcellulose) (HPC)
[4] = dose: 200.0 mg/kg/injection, schedule: Q04DX003 (ip), vehicle: Klucel (hydroxypropylcellulose) (HPC)
[5] = dose: 400.0 mg/kg/injection, schedule: Q01DX009 (ip), vehicle: Klucel (hydroxypropylcellulose) (HPC)
[6] = dose: 400.0 mg/kg/injection, schedule: Q04DX003 (ip), vehicle: Klucel (hydroxypropylcellulose) (HPC)
[7] = dose: 100.0 mg/kg/injection, schedule: Q04DX003 (ip), vehicle: other
[8] = dose: 200.0 mg/kg/injection, schedule: Q04DX003 (ip), vehicle: other
[9] = dose: 100.0 mg/kg/injection, schedule: Q01DX001 (ip), vehicle: Klucel (hydroxypropylcellulose) (HPC)
[10] = dose: 200.0 mg/kg/injection, schedule: Q01DX001 (ip), vehicle: Klucel (hydroxypropylcellulose) (HPC)
[11] = dose: 400.0 mg/kg/injection, schedule: Q01DX001 (ip), vehicle: Klucel (hydroxypropylcellulose) (HPC)
[12] = dose: 100.0 mg/kg/injection, schedule: Q04DX003 (ip), vehicle: saline
[13] = dose: 200.0 mg/kg/injection, schedule: Q04DX003 (ip), vehicle: saline
[14] = dose: 400.0 mg/kg/injection, schedule: Q04DX003 (ip), vehicle: saline
[15] = dose: 10.0 mg/kg/injection, schedule: Q01DX001 (ip), vehicle: saline
[16] = dose: 100.0 mg/kg/injection, schedule: Q01DX001 (ip), vehicle: saline with Tween-80
[17] = dose: 200.0 mg/kg/injection, schedule: Q01DX001 (ip), vehicle: saline with Tween-80

Measured: T/C

Cn1c2ccccc2c2n[nH]c(=S)nc21
inactive: dose: 100.0 mg/kg/injection, schedule: Q04DX002 (ip), vehicle: saline with Tween-80 104 % of control | dose: 200.0 mg/kg/injection, schedule: Q04DX002 (ip), vehicle: saline with Tween-80 93 % of control | dose: 400.0 mg/kg/injection, schedule: Q04DX002 (ip), vehicle: saline with Tween-80 101 % of control

NCc1cn(C2OC(CO)C(O)C2O)c2ncnc(N)c12 (stereo not drawn)
inactive: dose: 1.56 mg/kg/injection, schedule: Q01DX009 (ip), vehicle: saline 90 % of control | dose: 3.12 mg/kg/injection, schedule: Q01DX005 (ip), vehicle: saline 92 % of control | dose: 3.12 mg/kg/injection, schedule: Q01DX009 (ip), vehicle: saline 107 % of control | dose: 6.25 mg/kg/injection, schedule: Q01DX005 (ip), vehicle: saline 108 % of control

CCCCCCCCC(O)CCCC (stereo not drawn)
inactive: [1] 93 % of control | [2] 97 % of control | [3] 98 % of control | [4] 105 % of control | [5] 95 % of control | [6] 100 % of control

CC(=O)C1(C(C)=O)C(c2cccc([N+](=O)[O-])c2)C1(c1ccccc1)[N+](=O)[O-] (stereo not drawn)
inactive: dose: 100.0 mg/kg/injection, schedule: Q01DX001 (ip), vehicle: other 95 % of control | dose: 100.0 mg/kg/injection, schedule: Q01DX009 (ip), vehicle: saline with Tween-80 94 % of control | [7] 92 % of control | dose: 200.0 mg/kg/injection, schedule: Q01DX001 (ip), vehicle: other 93 % of control | dose: 200.0 mg/kg/injection, schedule: Q01DX009 (ip), vehicle: saline with Tween-80 102 % of control | [8] 92 % of control | dose: 400.0 mg/kg/injection, schedule: Q01DX001 (ip), vehicle: other 95 % of control | dose: 400.0 mg/kg/injection, schedule: Q01DX009 (ip), vehicle: saline with Tween-80 96 % of control | dose: 400.0 mg/kg/injection, schedule: Q04DX003 (ip), vehicle: other 97 % of control

CCCC#CC(=O)OCC
inactive: dose: 100.0 mg/kg/injection, schedule: Q04DX002 (ip), vehicle: saline 91 % of control | dose: 200.0 mg/kg/injection, schedule: Q04DX002 (ip), vehicle: saline 97 % of control | dose: 400.0 mg/kg/injection, schedule: Q04DX002 (ip), vehicle: saline 89 % of control

O=C(Cl)C(Cl)(Cl)Cl
inactive: dose: 100.0 mg/kg/injection, schedule: Q04DX002 (sc), vehicle: olive oil, sesame oil, peanut oil 103 % of control | dose: 200.0 mg/kg/injection, schedule: Q04DX002 (sc), vehicle: olive oil, sesame oil, peanut oil 116 % of control | dose: 400.0 mg/kg/injection, schedule: Q04DX002 (sc), vehicle: olive oil, sesame oil, peanut oil 100 % of control

CC(NC(=O)NCCCl)C1CC1 (stereo not drawn)
inactive: [9] 106 % of control | [2] 97 % of control | [10] 103 % of control | [4] 100 % of control | [11] 103 % of control | [6] 90 % of control

O=C1CCc2cc(Cl)ccc2O1
inactive: dose: 50.0 mg/kg/injection, schedule: Q01DX001 (ip), vehicle: carboxymethylcellulose (CMC) 103 % of control | dose: 100.0 mg/kg/injection, schedule: Q01DX001 (ip), vehicle: carboxymethylcellulose (CMC) 100 % of control | dose: 200.0 mg/kg/injection, schedule: Q01DX001 (ip), vehicle: carboxymethylcellulose (CMC) 103 % of control | dose: 400.0 mg/kg/injection, schedule: Q01DX001 (ip), vehicle: carboxymethylcellulose (CMC) 94 % of control

COc1ccc(C(C(C)=O)N2CCN(c3ccccc3)CC2)cc1 (stereo not drawn)
inactive: [7] 98 % of control | [8] 95 % of control

OCC1=C(CO)C2(Cl)C(Cl)=C(Cl)C1(Cl)C2(Cl)Cl
inactive: [1] 100 % of control | [12] 105 % of control | [3] 105 % of control | [13] 100 % of control | [5] 88 % of control | [14] 98 % of control

CC(=O)N/N=C/c1ccc([N+](=O)[O-])s1
inactive: dose: 100.0 mg/kg/injection, schedule: Q04DX003 (ip), vehicle: saline with Tween-80 94 % of control

COc1ccccc1/C=N/NC(=O)CCCCCCCCC(=O)N/N=C/c1ccccc1OC
inactive: [1] 95 % of control | [3] 88 % of control | [5] 88 % of control

CC(C)(C)C1(C)CN(N=O)C(=O)O1 (stereo not drawn)
inactive: dose: 12.5 mg/kg/injection, schedule: Q04DX003 (ip), vehicle: Klucel (hydroxypropylcellulose) (HPC) 114 % of control | dose: 25.0 mg/kg/injection, schedule: Q04DX003 (ip), vehicle: Klucel (hydroxypropylcellulose) (HPC) 104 % of control

OC(COc1cccc2ccccc12)CN1CCN(c2ccc(Cl)cc2)CC1 (stereo not drawn)
inactive: dose: 100.0 mg/kg/injection, schedule: Q01DX001 (ip), vehicle: saline 98 % of control | dose: 200.0 mg/kg/injection, schedule: Q01DX001 (ip), vehicle: saline 101 % of control | dose: 400.0 mg/kg/injection, schedule: Q01DX001 (ip), vehicle: saline 97 % of control

CCOc1ccc(N=Nc2c(C)nn(C(N)=S)c2-c2ccccc2)cc1
inactive: [15] 103 % of control | dose: 20.0 mg/kg/injection, schedule: Q01DX001 (ip), vehicle: saline 94 % of control | dose: 40.0 mg/kg/injection, schedule: Q01DX001 (ip), vehicle: saline 88 % of control

CC(=O)C(C)(O)C(C)(C)C (stereo not drawn)
inactive: dose: 100.0 mg/kg/injection, schedule: Q01DX009 (ip), vehicle: saline 88 % of control | dose: 200.0 mg/kg/injection, schedule: Q01DX009 (ip), vehicle: saline 90 % of control | dose: 400.0 mg/kg/injection, schedule: Q01DX009 (ip), vehicle: saline 98 % of control

CS(=O)(=O)OCCCCCCOCCCCOCCCCOCCCCCCOS(C)(=O)=O
inactive: [9] 92 % of control | [10] 93 % of control | [11] 93 % of control

CCCCCCCCCCCCCCCC[n+]1ccc(C#N)cc1
inactive: dose: 1.25 mg/kg/injection, schedule: Q01DX009 (ip), vehicle: saline 89 % of control | dose: 2.5 mg/kg/injection, schedule: Q01DX009 (ip), vehicle: saline 97 % of control | dose: 2.5 mg/kg/injection, schedule: Q04DX003 (ip), vehicle: saline 97 % of control | dose: 5.0 mg/kg/injection, schedule: Q01DX009 (ip), vehicle: saline 94 % of control | dose: 5.0 mg/kg/injection, schedule: Q04DX003 (ip), vehicle: saline 101 % of control | [15] 90 % of control | dose: 10.0 mg/kg/injection, schedule: Q04DX003 (ip), vehicle: saline 94 % of control

CC(=O)C(=O)Nc1ccccc1
inactive: [16] 94 % of control | [17] 91 % of control | dose: 400.0 mg/kg/injection, schedule: Q01DX001 (ip), vehicle: saline with Tween-80 94 % of control

O=C(NNc1ccccc1)c1ccccc1
inactive: dose: 50.0 mg/kg/injection, schedule: Q01DX009 (ip), vehicle: Klucel (hydroxypropylcellulose) (HPC) 101 % of control | [1] 101 % of control | [2] 94 % of control | [12] 100 % of control | [3] 110 % of control | [4] 107 % of control | [13] 103 % of control | [6] 100 % of control | [14] 93 % of control

CCCCCCn1c2ccccc2c2cc3cnccc3c(C)c21
inactive: dose: 37.5 mg/kg/injection, schedule: Q04DX003 (ip), vehicle: Klucel (hydroxypropylcellulose) (HPC) 97 % of control | dose: 75.0 mg/kg/injection, schedule: Q04DX003 (ip), vehicle: Klucel (hydroxypropylcellulose) (HPC) 97 % of control | dose: 150.0 mg/kg/injection, schedule: Q04DX003 (ip), vehicle: Klucel (hydroxypropylcellulose) (HPC) 102 % of control | dose: 300.0 mg/kg/injection, schedule: Q04DX003 (ip), vehicle: Klucel (hydroxypropylcellulose) (HPC) 104 % of control

Cc1c2cc[nH]c(C(F)(F)F)c2cc2c1nc1ccccc12
inactive: dose: 16.0 mg/kg/injection, schedule: Q01DX005 (ip), vehicle: saline 101 % of control | dose: 32.0 mg/kg/injection, schedule: Q01DX005 (ip), vehicle: saline 103 % of control | dose: 64.0 mg/kg/injection, schedule: Q01DX005 (ip), vehicle: saline 103 % of control | dose: 128.0 mg/kg/injection, schedule: Q01DX005 (ip), vehicle: saline 103 % of control

CN(C)c1ccc(/C=C(\C#N)c2ccccc2)cc1
inactive: [16] 87 % of control | [17] 88 % of control
